# Reference: patent US20060014729A1, “Compounds and their preparation for the treatment of Alzheimer's disease by inhibiting beta-amyloid peptide production” (priority 2004, published 2006)
# Key:
# [1] = system: secreted Aβ40 and Aβ42; experiment: Aβ ELISA in CHO-APP cells treated with compounds; assay type: cell-based, hamster (CHO) cells expressing human APP; conditions: 50 μg/ml, 6 and 24 hours, normalized to full-length APP and vehicle-treated cells
# Procedure: CHO cells stably transfected with human APP751 (CHO-APP cells) were treated with compounds as described above. The compounds were used at 50 μg/ml for 6 and 24 hours. Levels of secreted Aβ40 and Aβ42 were determined using a commercial Aβ ELISA kit (Biosource) and normalized to cell-associated full-length APP. The relative levels of Aβ40 (white bar) and Aβ42 (black bar) were normalized to values obtained from vehicle-treated cells and are shown as % to control. […] (D10=20(S), 24(R)-epoxydammarane-3β,25-diol; D2=Dammar-24-ene-3β,20(S)-diol; D3=reduction mixture of dammar resin by NaBH4; D5=Dammar resin mixture; D6=dipterocarpol; D7=t-butylhydroperoxide-oxidized products of D3. D8=3-acetyl Dammar-24-ene-3A, 20(S)-diol; D9=3-acetyl 20(S),24(R)-epoxydammarane-3β,25-diol; D10=20(S),24(R)-epoxydammarane-3×, 25-diol; D11=Dammar-24-ene-3×, 20(S)-diol; D12=tetraacetyl 20-hydroxydammar-24-ene-3-yl-glucopyranoside; D13=20-hydroxydammar-24-ene-3-yl-glucopyranoside; D15=20(S), 24(R)-epoxydammarane-3-oxo, 25-ol.
# [2] = system: Aβ42; conditions: cited from earlier work
# [3] = system: γ-secretase complex; conditions: partially purified γ-secretase complex; cited from earlier work
compound,measurement,setting,value
"CC(=O)O[C@H]1CC[C@]2(C)[C@H]3CC[C@@H]4[C@@H]([C@]5(C)CC[C@H](C(C)(C)O)O5)CC[C@@]4(C)[C@]3(C)CC[C@H]2C1(C)C [Compound D9, 3-acetyl 20(S),24(R)-epoxydammarane-3β,25-diol]",selective potentiation of Aβ42 production,[1],selectively potentiated Aβ42 production
"CC(C)=CCCC(C)(O)C1CC[C@]2(C)C1CCC1[C@@]3(C)CC[C@@H](O)C(C)(C)C3CC[C@]12C (stereo partly drawn) [Compound D11, Dammar-24-ene-3α,20(S)-diol]","Aβ-lowering activity (levels of secreted Aβ40 and Aβ42, % to control)",[1],exhibited Aβ-lowering activities
"CC(C)=CCC[C@](C)(O)[C@H]1CC[C@]2(C)[C@@H]1CC[C@@H]1[C@@]3(C)CCC(=O)C(C)(C)[C@@H]3CC[C@]12C [Compound D6, dipterocarpol]","Aβ-lowering activity (levels of secreted Aβ40 and Aβ42, % to control)",[1],exhibited Aβ-lowering activities
CC(C)=CC/C=C(\C)[C@H]1CC[C@]2(C)[C@@H]1[C@H](O)C[C@@H]1[C@@]3(C)CC[C@H](O[C@@H]4O[C@H](CO)[C@@H](O)[C@H](O)[C@H]4O[C@@H]4O[C@H](CO)[C@@H](O)[C@H](O)[C@H]4O)C(C)(C)[C@@H]3CC[C@]12C [Rg5],production of Aβ42 in mammalian cells,[2]; mammalian cells,lower the production of Aβ42 in mammalian cells
"CC(C)(O)C1CCC(C)(C2CCC3(C)C2CCC2C4(C)CCC(=O)C(C)(C)C4CCC23C)O1 [Compound D15, 20(S), 24(R)-epoxydammarane-3-oxo, 25-ol]","Aβ-lowering activity (levels of secreted Aβ40 and Aβ42, % to control)",[1],exhibited Aβ-lowering activities
C=C(CCC=C(C)C)[C@H]1CC[C@]2(C)[C@@H]1[C@H](O)C[C@@H]1[C@@]3(C)CC[C@H](O[C@@H]4O[C@H](CO)[C@@H](O)[C@H](O)[C@H]4O[C@@H]4O[C@H](CO)[C@@H](O)[C@H](O)[C@H]4O)C(C)(C)[C@@H]3CC[C@]12C [Rk1],production of Aβ42 in mammalian cells,[2]; mammalian cells,lower the production of Aβ42 in mammalian cells
same,relative effectiveness in reducing Aβ42 levels,[2]; mammalian cells,most effective in reducing Aβ42 levels
same,Aβ42 production in cell-free assay,[3],inhibit the Aβ42 production
"CC(C)(O)[C@H]1CC[C@@](C)([C@H]2CC[C@]3(C)[C@@H]2CC[C@@H]2[C@@]4(C)CC[C@H](O)C(C)(C)[C@@H]4CC[C@]23C)O1 [Compound D1, 20(S), 24(R)-epoxydammarane-3β, 25-diol]",selective potentiation of Aβ42 production,[1],selectively potentiated Aβ42 production
"CC(C)(O)[C@H]1CC[C@@](C)([C@H]2CC[C@]3(C)[C@@H]2CC[C@@H]2[C@@]4(C)CC[C@@H](O)C(C)(C)[C@@H]4CC[C@]23C)O1 [Compound D10, 20(S),24(R)-epoxydammarane-3 cc, 25-diol]","Aβ-lowering activity (levels of secreted Aβ40 and Aβ42, % to control)",[1],exhibited Aβ-lowering activities
"CC(C)=CCCC(C)(O)C1CC[C@]2(C)C1CCC1[C@@]3(C)CC[C@H](O)C(C)(C)C3CC[C@]12C (stereo partly drawn) [Compound D2, Dammar-24-ene-3β,20(S)-diol]",selective potentiation of Aβ42 production,[1],selectively potentiated Aβ42 production
tetraacetyl 20-hydroxydammar-24-ene-3-yl-glucopyranoside [Compound D12],"Aβ-lowering activity (levels of secreted Aβ40 and Aβ42, % to control)",[1],exhibited Aβ-lowering activities
CC(C)=CCC[C@](C)(O)[C@H]1CC[C@]2(C)[C@@H]1[C@H](O)C[C@@H]1[C@@]3(C)CC[C@H](O[C@@H]4O[C@H](CO)[C@@H](O)[C@H](O)[C@H]4O[C@@H]4O[C@H](CO)[C@@H](O)[C@H](O)[C@H]4O)C(C)(C)[C@@H]3CC[C@]12C [(20S)Rg3],production of Aβ42 in mammalian cells,[2]; mammalian cells,lower the production of Aβ42 in mammalian cells
CC(C)=CCC[C@](C)(O[C@@H]1O[C@H](CO)[C@@H](O)[C@H](O)[C@H]1O)[C@H]1CC[C@]2(C)[C@@H]1[C@H](O)C[C@@H]1[C@@]3(C)CC[C@H](O)C(C)(C)[C@@H]3[C@@H](O[C@@H]3O[C@H](CO)[C@@H](O)[C@H](O)[C@H]3O)C[C@]12C [Rg1],amyloid-reducing activity in vitro,[2]; in vitro,no amyloid-reducing activity in vitro
